The text below walks through data of PMC5402304, “Oxoaporphine Metal Complexes (Co^II, Ni^II, Zn^II) with High Antitumor Activity by Inducing Mitochondria-Mediated Apoptosis and S-phase Arrest in HepG2” (Scientific Reports, 2017).

For one data set, the system named is Hep-G2. The conditions noted are these: read-out: Antitumor activity: IC50; cited from earlier work.
Another data set concerns NCI-H460. The conditions noted are these: read-out: Antitumor activity: IC50; cited from earlier work.
Another data set relates to SK-OV-3. Also on record: method as in PMID 27898051. The settings on record: read-out: Antitumor activity: IC50; cited from earlier work.
The test system of the next data set is HepG2. Briefly: MTT cytotoxicity assay, HepG2. The data set is classed as cell-based, human. The conditions noted are these: for inhibitive ratio: HepG2, 20 μmol/L, 48 h; for IC50: HepG2, 48 h, MTT. On the procedure: (§1) The in vitro cytotoxicity of OD, 1–3 and the corresponding metal salts were determined by MTT assay towards a panel of human tumor cells including HepG2, T-24, BEL-7404, MGC80-3, SK-OV-3/DDP and normal HL-7702 cells. As the positive control, cisplatin was dissolved at a concentration of 1 mM in 0.154 M NaCl[32].
(§2) The human tumor cell lines (BEL-7404, HepG2, MGC80–3, T-24, SK-OV-3/DDP and HeLa cells) and the human normal liver cell line HL-7702 were obtained from Shanghai Cell Bank in Chinese Academy of Sciences. Cells were cultured in Dulbecco’s modified Eagle’s medium (DMEM) or RPMI-1640 medium, which supplemented with 10% fetal bovine serum (FBS) and 100 U/mL penicillin and streptomycin. Cells were cultured at 37 °C in a humidified atmosphere with 5% CO2/95% air. Tested compounds (2.0 mM) were prepared as DMSO stock solution before they were diluted to working concentrations by PBS buffer (containing 0.5% DMSO), while cisplatin dissolved in 0.9% sodium chloride solution was used as positive controls.
(§3) Cells in their logarithmic phase were seeded in 96-well plates with 5.5 × 10^3/180 μL per well for 24 h. Then 20 μL of compounds at various concentrations were added to each well to achieve final concentrations of 1.25, 2.5, 5.0, 10.0, and 20.0 μM. All the cells were incubated with test compounds for another 48 h before MTT assay. Control wells contained media with 0.5% DMSO. After 48 h of cultivation, 10 μL of MTT (5 mg/mL in PBS) was added to each well, and cells were incubated at 37 °C for 6 h. The contents in the wells were pipetted out carefully, and the formazan crystals formed were dissolved in 100 μL of DMSO, and the absorbance was measured by enzyme labeling instrument with 490 nm/630 nm double wavelength measurement. The IC50 value was defined as a drug concentration killing 50% cells in comparison with untreated controls, which was calculated by the Bliss method (n = 5). All tests were repeated in at least three independent trials.

Another data set concerns T-24. Put plainly: MTT cytotoxicity assay, T-24. The class given is cell-based, human. The settings on record: for inhibitive ratio: T-24, 20 μmol/L, 48 h; for IC50: T-24, 48 h, MTT. The protocol:
as §1, §2, §3

In data set [1] the test system is BEL-7404. Put plainly: MTT cytotoxicity assay, BEL-7404. The data set is classed as cell-based, human. The settings on record: for inhibitive ratio: BEL-7404, 20 μmol/L, 48 h; for IC50: BEL-7404, 48 h, MTT. On the procedure: as §1, §2, §3
For orientation: Formazan colour is commonly taken as a measure of viable cells.

Another data set concerns MGC80-3. Briefly: MTT cytotoxicity assay, MGC80-3. The data set is classed as cell-based, human. The conditions noted are these: for inhibitive ratio: MGC80-3, 20 μmol/L, 48 h; for IC50: MGC80-3, 48 h, MTT. The protocol:
as §1, §2, §3

A further data set has as its system SK-OV-3/DDP. Briefly: MTT cytotoxicity assay, SK-OV-3/DDP. The class given is cell-based, human. The conditions noted are these: for IC50 / inhibitive ratio: 48 h; for IC50: MTT; for inhibitive ratio: SKOV-3/DDP, 20 μmol/L. On the procedure: as §1, §2, §3
For a further data set, the system named is HL-7702. Briefly: MTT cytotoxicity assay, normal liver cells HL-7702. The data set is classed as cell-based, human. The conditions noted are these: 48 h; for inhibitive ratio: HL-7702, 20 μmol/L; for IC50: HL-7702 normal liver cells, MTT. The protocol: as §1, §2, §3
For the next data set, the system named is HepG2 xenograft. Put plainly: HepG2 xenograft nude mice model, tumor growth inhibition. The data set is classed as in vivo, BALB/c nude mice. The conditions noted are these: 2.0 mg/kg ip every two days.
Data set [2] is described as follows: Body weight of mice in the HepG2 xenograft model. The data set is classed as in vivo, BALB/c nude mice. The conditions noted are these: 2.0 mg/kg ip every two days; permissible value 20%. The protocol: To further evaluate the in vivo antitumor efficacy of these complexes, 3 was selected to inhibit tumor growth in a HepG2 xenografts model. The mice were randomized into control group, 3-treated groups and positive control group (n = 6). Once the tumor had grown to an average volume of about 100 mm^3, two group of nude mice were injected intraperitoneally (ip) of 3 at a high dose (6.0 mg/kg) and a low (3.0 mg/kg) dose daily for 20 days, respectively. Cisplatin was used as positive control injected at 2.0 mg/kg every two days, while control group received solvents only.
BALB/c nude mice (male, 17–20 g, 5–6 weeks old) were supplied by Guangxi Medical University Laboratory Animal Centre (Guangxi, China, approval no. SCXK 2014–0002 and SYXK 2014–0003). All of the experimental procedures were carried out according to the NIH Guidelines for the Care and Use of Laboratory Animals. Animal experiments were approved by the Animal Care and Use Committee of Guangxi Medical University. Animal were housed at IVC system (individual ventilated caging) with conditions of constant photoperiod (12 h light/12 h dark at 25−28 °C and 45−65% humidity). The xenograft tumor model was established in the same way as we reported before. […]
The tumor volumes and body weight were measured every 3 days, and tumor size was calculated as volume = (w^2l)/2, where w is the width and l is the length in mm of tumor[70]. […]

For data set [3], the system named is HepG2, T-24, BEL-7404, MGC80-3, SK-OV-3/DDP. Put plainly: MTT cytotoxicity assay, panel of human tumor cells. The class given is cell-based. The conditions noted are these: 48 h, range over all the tested tumor cells, read-out: inhibition rate. The protocol:
as §1, §2
Cells in their logarithmic phase were seeded in 96-well plates with 5.5 × 10^3/180 μL per well for 24 h. […] The contents in the wells were pipetted out carefully, and the formazan crystals formed were dissolved in 100 μL of DMSO, and the absorbance was measured by enzyme labeling instrument with 490 nm/630 nm double wavelength measurement. […]

Data set [4] concerns HepG2 cells. Put plainly: Cell cycle analysis by flow cytometry. The data set is classed as cell-based, human. The conditions noted are these: HepG2, 0.5 and 1.0 μM, 24 h, compared to untreated cells. The protocol:
With the high cytotoxicity in vitro, HepG2 cells were selected to investigate the cell cycle treated with 1–3 (0.125, 0.25 and 0.5 μM) and OD (0.5 and 1.0 μM) for 24 h. […] However, 1–3 induced a significant increase of S-phase cell population in a dose-dependent manner.
Cell cycle progression and apoptosis were determined by flow cytometric analysis. (a) Cell cycle arrest assay: HepG2 cells in their logarithmic phase were plated into 50 mL plates at a final density of 5−6 × 10^6 cells/well overnight, then they were treated with various doses (0.25, 0.5 and 1.0 μM) of 1–3 for another 24 h. Cells were trypsinized, collected, and fixed in ice-cold 75% ethanol at −20 °C overnight. After centrifugation, the fixed cells were rinsed with ice-cold phosphate buffered saline (PBS), and resuspended in 0.5 mL of PBS containing 100 μg/mL RNase, 50 μg/mL propidium iodide (PI) in the dark for 5−10 min. The cell cycle distribution was analyzed by FACS Calibur flow cytometer (BD) and calculated using ModFIT LT software. (b) Apoptosis assay: 1 × 10^5 HepG2 cells were plated in 6-well plates, after incubation for 24 h with complexes 1–3 at 1.0, 2.0 and 5.0 μM, cells were collected, and Apoptosis Detection kit FITC Annexin V was used to analyze the cell apoptosis according to the manufacturer’s instructions.

Data set [5] concerns HepG2 cells. Briefly: Comet assay for DNA damage. The data set is classed as cell-based, human. The settings on record: HepG2, 1.0 μM, 24 h. Also on record: unit not given here. On the procedure:
After the observation of significant S-phase arrest caused by 1–3, the study of DNA damage assay is necessary. The single cell gel electrophoresis technique (comet assay) is a simple, sensitive, reliable, and rapid method to detect DNA damage in eukaryotic cell[39]. As shown in Table 3 and Fig. 6, 1–3 at 1.0 μM induced DNA damage (fragmentation or unwinding) appeared as fluorescent comets with remarkable increase of tails size, especially for 3.
The comet assay is a simple method for measuring DNA strand breaks in cells. The comet assay reagent kit was purchased from Trevigen, and the experiment was carried out according to the manufacturer’s instructions. After treatment with OD and 1–3 at 1.0 μM, HepG2 cells were harvested and suspended at 1 × 10^6 Hep-G2 cells/mL in PBS. The cells suspension was mixed with melted LM agarose at a ratio of 1:10 (v/v). An aliquot (75 μL) of the mixture was immediately pipetted onto the slide (Comet Slide TM). After refrigeration for 30 min, the slide was immersed in pre-chilled lysis solution and left on ice for 60 min, followed by immersing in freshly prepared alkaline solution (300 mM NaOH, 1 mM EDTA, pH > 13) for 60 min on ice in darkness. After DNA unwinding, the slide was subjected to alkaline solution for electrophoresis in a Savant ps 250 system set at 300 mA and 1 volt/cm for 30 min. After electrophoresis, the slide was rinsed with distilled H2O, fixed in 70% ethanol for 5 min and air-dried overnight. DNA was stained with SYBR Green I (Trevigen) and visualized under a fluorescence microscope (Nikon, Eclipse E600).

Data set [6] concerns BEL-7404. The settings on record: read-out: Antitumor activity: IC50; cited from earlier work.
Another data set relates to A2780. Also on record: method as in PMID 20023911. The conditions noted are these: read-out: Antitumor activity: IC50; cited from earlier work.
The next data set has as its system HT-29. Also on record: method as in PMID 20023911. The settings on record: read-out: Antitumor activity: IC50; cited from earlier work.

Like-named read-outs stand apart in the source and are kept apart here.

A word on the IC50: it is the midpoint of a concentration-inhibition curve. In the case of `Nc1c(Cl)ccc2c1-c1nccc3cccc(c13)C2=O.[Cl][Ni][Cl]` [Complex C00006], the figures for the IC50 with Hep-G2, with NCI-H460 and in the data set on SK-OV-3 were 28.8 µM, 35.2 µM and 29.1 µM, respectively.

As for `N.N.[Cl][Pt][Cl]` [cisplatin, reference compound], the inhibitive ratio came out at 71.93±0.83% in the data set with HepG2; 75.26±1.00% with T-24; 76.07±2.68% with BEL-7404 [1]; 65.58±0.09% in the data set on MGC80-3; 15.13±0.07% in the data set with SK-OV-3/DDP; 68.96±1.34% in the data set on HL-7702. For the same compound, the IC50 was found to be 7.72 ± 0.83 µM with HepG2; 7.48 ± 0.26 µM in the data set with T-24; 10 ± 0.53 µM in the data set with BEL-7404 [1]; 16 ± 1.53 µM in the data set on MGC80-3; 66 ± 1.53 µM in the data set on SK-OV-3/DDP (SK-OV-3/DDP); 5.18 ± 0.68 µM in the data set on HL-7702. Moreover, the “IR (tumor weight inhibition rate)” value in the data set with HepG2 xenograft worked out at 65.8%. In addition, in [2], the “drop in body weight” value amounted to 25.8%.

As usually defined, the inhibition is the share of the control response that was lost under treatment. For the compound `COc1cc2c(cc1O)C(=O)c1nccc3cc(OC(C)C)c(OC)c-2c13` [OD], the inhibitive ratio was determined as 33.35±0.32% in the data set with HepG2; 46.91±0.17% in the data set on T-24; 36.28±0.18% with BEL-7404 [1]; 42.28±0.24% with MGC80-3; 45.57±1.94% in the data set on SK-OV-3/DDP; 46.55±0.67% with HL-7702. Further, the IC50 turned out to be 8.98 ± 0.76 µM in the data set on HepG2 (Homo sapiens); 9.12 ± 0.11 µM in the data set with T-24 (Homo sapiens); 24.8 ± 1.02 µM in the data set on BEL-7404 [1] (Homo sapiens); 23.3 ± 0.88 µM in the data set on MGC80-3 (Homo sapiens, MGC-803); 38.5 ± 1.42 µM in the data set on SK-OV-3/DDP (Homo sapiens, SK-OV-3/DDP); 9.28 ± 0.43 µM in the data set on HL-7702 (Homo sapiens, L02). Also, the “folds higher cytotoxicity than cisplatin” value in the data set with SK-OV-3/DDP (SK-OV-3/DDP, ratio of IC50) is reported as 2 folds. For the same compound, in data set [3], the inhibition at 20 µM lay within 33 to 47%. Besides, the “effect on the population of the cell cycle” value in the data set with HepG2 cells [4] is given as “barely change the population of the cell cycle”. In the data set with HepG2 cells [5], this compound returned a Comet length of 49.45 ± 6.19. Besides, the Olive tail moment in the data set on HepG2 cells [5] is listed as 0.13 ± 0.29. The Tail length in the data set with HepG2 cells [5] amounted to 1.96 ± 1.78. In the data set on HepG2 cells [5], this compound registered a Tail moment of 0.12 ± 0.21.

In the case of `O=C1c2ccccc2-c2c3c(cc4ccnc1c24)OCO3.O=C1c2ccccc2-c2c3c(cc4ccnc1c24)OCO3.[Cl][Zn][Cl].[Cl][Zn][Cl]` [Complex C00008], the IC50 in the data set on BEL-7404 [6] is 8.4 µM; in the data set with A2780, 6.7 µM; in the data set with HT-29, 5.8 µM.

On to `Nc1cccc2c1C(=O)c1cccc3ccnc-2c13.[Cl][Ni][Cl]` [Complex C00005], for which the values for the IC50 in the data set with Hep-G2, in the data set on NCI-H460 and in the data set on SK-OV-3 were 18.2 µM, 15.6 µM and 15 µM, respectively.
